Measured values taken from patent US11919867B1, “5-(4,5-bis(4-bromophenyl)-2-(4-methoxyphenyl)-1H-imidazol-1-yl)pentanoic acid as an antimicrobial compound” (KING FAISAL UNIVERSITY, priority 2023, dated 2024).

Legend:
Format in all cases: cell-based
Aspergillus flavus = test: Agar plate disc-diffusion, antifungal inhibition zone; settings: Sabouraud's dextrose agar, 72 hours, DMSO control zone subtracted
Protocol: (§1) The agar plate disc-diffusion method was applied. […] The discs were then placed onto the surface of agar plates (nutrient agar for bacteria and Sabouraud's dextrose agar for fungi) seeded with the test organism. Each plate contained 15 mL of the agar medium, previously seeded with 0.2 mL of the broth culture of each organism pregrown for 18 hours. The plates were incubated at 37° C. for 48 hours, and 72 hours for fungi. The inhibition zones was measured in mm. Discs impregnated with DMSO were used as a control, and its inhibition zone was subtracted from the tested compound actual inhibition zone.

[1] = system: Chrysosporium keratinophilum; test: as above; settings: Sabouraud's dextrose agar, 72 hours, DMSO control zone subtracted
Protocol: as §1

Escherichia coli = test: Agar plate disc-diffusion, antibacterial inhibition zone; settings: nutrient agar, 37° C., 48 hours, DMSO control zone subtracted
Protocol: as §1

Bacillus cereus = test: as above; settings: nutrient agar, 37° C., 48 hours, DMSO control zone subtracted
Protocol: as §1

Pseudomonas aeruginosa = test: as above; settings: nutrient agar, 37° C., 48 hours, DMSO control zone subtracted
Protocol: as §1

Staphylococcus aureus = test: as above; settings: nutrient agar, 37° C., 48 hours, DMSO control zone subtracted
Protocol: as §1

[2] = A = concentration of comp. = 10,000 μL
[3] = B = concentration of comp. = 30,000 μL
[4] = C = concentration of comp. = 50,000 μL

COc1ccc(-c2nc(-c3ccc(Br)cc3)c(-c3ccc(Br)cc3)n2CCCCC(=O)O)cc1 [V, 5-(4,5-bis(4-bromophenyl)-2-(4-methoxyphenyl)-1H-imidazol-1-yl)pentanoic acid]
inhibition zone, Aspergillus flavus, A (Aspergillus flavus; [2]): 22 mm
inhibition zone, Aspergillus flavus, B (Aspergillus flavus; [3]): 25 mm
inhibition zone, Aspergillus flavus, C (Aspergillus flavus; [4]): 33 mm
inhibition zone, Chrysosporium keratinophilum, A [1, 2]: 26 mm
inhibition zone, Chrysosporium keratinophilum, B [1, 3]: 27 mm
inhibition zone, Chrysosporium keratinophilum, C [1, 4]: 45 mm
inhibition zone, Escherichia coli, A (Escherichia coli; [2]): 30 mm
inhibition zone, Escherichia coli, B (Escherichia coli; [3]): 40 mm
inhibition zone, Escherichia coli, C (Escherichia coli; [4]): 55 mm
inhibition zone, Bacillus Cereus, A (Bacillus cereus; [2]): 28 mm
inhibition zone, Bacillus Cereus, B (Bacillus cereus; [3]): 29 mm
inhibition zone, Bacillus Cereus, C (Bacillus cereus; [4]): 39 mm
inhibition zone, Pseudomonas aeruginosa, A (Pseudomonas aeruginosa; [2]): 26 mm
inhibition zone, Pseudomonas aeruginosa, B (Pseudomonas aeruginosa; [3]): 29 mm
inhibition zone, Pseudomonas aeruginosa, C (Pseudomonas aeruginosa; [4]): 40 mm
inhibition zone, Staphylococcus aureus, A (Staphylococcus aureus; [2]): 15 mm
inhibition zone, Staphylococcus aureus, B (Staphylococcus aureus; [3]): 22 mm
inhibition zone, Staphylococcus aureus, C (Staphylococcus aureus; [4]): 31 mm
